Test results published in US6953814B2, “Natural insect repellant” (Stratacor, Inc., priority 1997, dated 2005).
Like-named read-outs stand apart in the source and are kept apart here.

Assays:
Aedes aegypti mosquitoes [1] = details: 0.31 mg/cm^2; cited from earlier work
Aedes aegypti [2] = details: 0.5 mg/cm^2 on the skin of man; cited from earlier work
Vapor pressure = assay type: physicochemical; details: for Vol. (vapor pressure), (est): at 125° C., estimated or extrapolated from literature values
mosquitoes = details: Hill et al. 1979; cited from earlier work
Aedes aegypti mosquitoes [3] = assay: Mosquito repellency on gauze or polyester film (olfactometer); assay type: in vivo; details: Aedes aegypti, 0.05 h, cotton gauze or polyester film, 0.3 mg/cm^2, 3 minutes after application; read-out: Percent Repellency
Excerpt: Olfactometer: A Fiensod and […] olfactometer, as modified by Bowen and Davis, measured the host-oriented flight response of female mosquitoes to volatile host emanations (Feinsod, F. M., and […]; An olfactometer for measuring host-seeking behavior of female Aedes aegypti (Diptera: Culicidae); J. Med. Entomol., 15: 282-285, 1979). The olfactometer (approximately 38 cm high) consisted of an upper and lower screened chamber with a closure between the chambers (FIG. 8). A fan placed above the upper chamber drew air through the apparatus at approximately 0.2 m/s. A temperature and humidity controlled chamber (5' wide by 6' long by 8' high) was constructed to house the test subject and the olfactometer. Rearing of Mosquitoes: A second environmental chamber, maintained at 27° C. and 80% humidity, was dedicated to the rearing of Aedes aegypti mosquitoes. […] Assays for Attraction of Mosquitoes to Human Subjects: A group of 30 volunteers, consisting of 14 females and 16 males and ranging in age from 24 to 68 years, was selected from the surrounding civilian population. Individuals were tested for their ability to attract Aedes aegypti mosquitoes contained in the olfactometer. Tests were conducted at a temperature of 27° C. and 50% relative humidity. […] A small fan was placed on top of the upper chamber to cause an air flow from the lower chamber to the upper chamber. A trial began when the closure between the upper and lower chamber was opened in the absence of a human host. […] This trial was repeated twice during a test session to obtain three replicates. Two additional test sessions, at time intervals of at least 1 week, were conducted to obtain at least 8-9 replicates for each of 24 subjects. Of the remaining 6 subjects, 3 were tested on two separate occasions for a total of 6 replicates per subject; 3 were tested on one occasion for a total of 3 replicates per subject. A total of 254 tests were conducted. Test compounds were dissolved in acetone or ethanol at a concentration of 150 mg/5 cc. Ethanol solutions of carboxylic acids were prepared just prior to use. Five hundred microliters of these solutions were applied to a 50 cm^2 circular area of a single layer of cotton gauze (Curity Curad gauze, Futuro Inc., Milford, Ohio) or nonwoven polyester film ([…], Inc.). The resultant dose was 0.3 mg/cm^2. […] The cup was attached to the bottom of the olfactometer (FIG. 8) so that air flowed through the stainless steel screen of the cup, through the treated gauze or film, and through the olfactometer. A volunteer's forearm was placed under the cup, so that air drawn into the cup and olfactometer was laden with human skin emanations. Tests were conducted as described in the preceding paragraph, “Assays for attraction of mosquitoes to human subjects”. Percent repellency was determined from the fraction of mosquitoes entering the lower chamber over a seven minute period. This assay is an approximate measure of the intrinsic repellency of a compound. Good repellency in this test is a necessary, but not sufficient, condition for good repellency on skin. Mosquito repellents must produce a vapor over the skin surface to confuse the host seeking behavior of the insect. However, volatilization must not be so great that the repellent action rapidly dissipates. Since volatilization from the skin will be different from an inanimate surface, skin tests are necessary to confirm that a compound will be a practical repellent.

Aedes aegypti mosquitoes [4] = assay: Mosquito repellency on skin (olfactometer, human forearm); assay type: in vivo; details: for repellency immediately after application to skin, compared to DEET: FIG. 4; for Percent Repellency 2 h: 0.3 mg/cm^2, 2 h after application; for Percent Repellency 4 h: 0.3 mg/cm^2, 4 h after application
Excerpt: Olfactometer: A Fiensod and Spielman olfactometer, as modified by Bowen and Davis, measured the host-oriented flight response of female mosquitoes to volatile host emanations (Feinsod, F. M., and A. Spielman; An olfactometer for measuring host-seeking behavior of female Aedes aegypti (Diptera: Culicidae); J. Med. Entomol., 15: 282-285, 1979). The olfactometer (approximately 38 cm high) consisted of an upper and lower screened chamber with a closure between the chambers (FIG. 8). A fan placed above the upper chamber drew air through the apparatus at approximately 0.2 m/s. A temperature and humidity controlled chamber (5′ wide by 6′ long by 8′ high) was constructed to house the test subject and the olfactometer.
Rearing of Mosquitoes: A second environmental chamber, maintained at 27° C. and 80% humidity, was dedicated to the rearing of Aedes aegypti mosquitoes. Routine shipments of eggs (American Biological Supply, Gainesville, Fla.) were used to maintain a continuous supply of adult 5-10 day old mosquitoes.
Assays for Attraction of Mosquitoes to Human Subjects: A group of 30 volunteers, consisting of 14 females and 16 males and ranging in age from 24 to 68 years, was selected from the surrounding civilian population. Individuals were tested for their ability to attract Aedes aegypti mosquitoes contained in the olfactometer. Tests were conducted at a temperature of 27° C. and 50% relative humidity. For each trial 15 avid adult female Aedes aegypti mosquitoes (5-10 days post-emergence) were placed in the upper chamber. A small fan was placed on top of the upper chamber to cause an air flow from the lower chamber to the upper chamber. A trial began when the closure between the upper and lower chamber was opened in the absence of a human host. The number of mosquitoes entering the lower chamber within a 3 minute period was recorded. The volunteer then placed his or her arm beneath the lower chamber and the number of mosquitoes flying from the upper chamber to the lower chamber was recorded for the time intervals 0-1, 1-3, 3-5 and 5-7 minutes. This trial was repeated twice during a test session to obtain three replicates. Two additional test sessions, at time intervals of at least 1 week, were conducted to obtain at least 8-9 replicates for each of 24 subjects. Of the remaining 6 subjects, 3 were tested on two separate occasions for a total of 6 replicates per subject; 3 were tested on one occasion for a total of 3 replicates per subject. A total of 254 tests were conducted.
Test compounds were dissolved in acetone or ethanol at a concentration of 300 mg/5 cc. Ethanol solutions of carboxylic acids were prepared just prior to use. Three hundred and fifty microliters of these solutions were applied to a 70 cm^2 rectangular area of the forearm. The resultant dose was 0.3 mg/cm^2. The repellent treated area was allowed to dry for 5 minutes prior to test. The treated skin area was placed under the olfactometer and tests were conducted as described in the preceding paragraph, “Assays for attraction of mosquitoes to human subjects”. Percent repellency was determined from the fraction of mosquitoes entering the lower chamber over a seven minute period.
A commercial formulation of DEET (Skintastic, S. C. Johnson, Racine,) was applied to a 100 cm^2 area on the forearm of 1 volunteer (subject 02) to give a dose of 0.3 mg/cm^2 of DEET. A formulation of C8C9C10 (5% octanoic, 5% nonanoic, 5% decanoic in Dow Corning 345 volatile silicone fluid) was applied to a 100 cm^2 on the subject's other arm to give a dose of 0.3 mg/cm^2 total acids. Application sites were placed under the olfactometer at 1, 2 and 4 hours after treatment. Untreated areas on each arm were placed under the olfactometer at the completion of the treated area tests to check the avidity of the mosquitoes. Tests were done on four separate test days. […]

Aedes aegypti mosquitoes [5] = assay: as above; assay type: in vivo; details: on skin
[6] = system: yellow fever mosquito (Aedes aegypti (L.)); details: human skin, approximately 2 mg/cm^2, time until two bites; DEET from Gilbert 1957; cited from earlier work
[7] = system: malaria mosquito (Anopheles quadrimaculatus Say); details: human skin, approximately 2 mg/cm^2, time until two bites; cited from earlier work
[8] = rabbit, in vivo; cited from earlier work
[9] = cited from earlier work
[10] = cited from earlier work; remark: listed apart in the source
Aedes aegypti [11] = details: King 1954; cited from earlier work

CCCCCCCC=CC(=O)O [2-Decenoic acid]
Protection time against Aedes aegypti mosquitoes (Aedes aegypti mosquitoes [1]): <15 min | Protection Time (Aedes aegypti [2]): 6 ± 4 h | Vol. (vapor pressure), (est) (Vapor pressure): 2.4 (est) mm Hg

CCCCCCCCCC=CC(=O)O [2-Dodecenoic Acid]
Protection time against Aedes aegypti mosquitoes (Aedes aegypti mosquitoes [1]): 120 min

CCCC(O)C(CC)CO (centres unmarked) [2-Ethyl-1,3-hexanediol, reference compound]
protects against mosquitoes for (mosquitoes): 3 to 4 h | volatility relative to DEET (Vapor pressure; from vapor pressures of Table 7): twice as volatile as DEET

CCCCCCC=CC(=O)O [2-Nonenoic Acid]
Protection time against Aedes aegypti mosquitoes (Aedes aegypti mosquitoes [1]): 120 min

CCCCCC=CC(=O)O [2-Octenoic acid, 2-Octenoic Acid]
pest or weed control at 0.3 mg/cm2 (Aedes aegypti mosquitoes [3]): 97 ± 5% | repellency immediately after application to skin, compared to DEET (Aedes aegypti mosquitoes [4]): less repellent | Percent Repellency 2 h (Aedes aegypti mosquitoes [4]; on skin): 29 (1) % | Percent Repellency 4 h (Aedes aegypti mosquitoes [4]; on skin): 27 (1) % | Vol. (vapor pressure), (est) (Vapor pressure): 10.8 mm Hg

CCC=CC(=O)O [2-Pentenoic acid, 2-Pentenoic Acid]
pest or weed control at 0.3 mg/cm2 (Aedes aegypti mosquitoes [3]): 100% | Vol. (vapor pressure), (est) (Vapor pressure): 92 mm Hg

CCCCCC(C)=CC(=O)O [3-Methyl-2-octenoic acid]
Percent Repellency 2 h (Aedes aegypti mosquitoes [5]; 0.6 mg/cm^2, 2 h after application): 73% (1) | Percent Repellency 4 h (Aedes aegypti mosquitoes [5]; 0.6 mg/cm^2, 4 h after application): 40 (1) % | pest or weed control at 0.3 mg/cm2 (Aedes aegypti mosquitoes [3]): 95% | repellency immediately after application to skin, compared to DEET (Aedes aegypti mosquitoes [4]): less repellent | Percent Repellency 2 h (Aedes aegypti mosquitoes [4]; on skin): 40 ± 5 (3) % | Percent Repellency 4 h (Aedes aegypti mosquitoes [4]; on skin): 47 ± 21% | Percent Repellency 8 h (Aedes aegypti mosquitoes [4]; on skin, 0.3 mg/cm^2, 8 h after application): 60% | Vol. (vapor pressure), (est) (Vapor pressure): 6 (est) mm Hg

CCC(C)=CC(=O)O [3-Methyl-2-pentenoic acid, 3-Methyl-2-pentenoic Acid]
pest or weed control at 0.3 mg/cm2 (Aedes aegypti mosquitoes [3]): 65% | Vol. (vapor pressure), (est) (Vapor pressure): 49.5 mm Hg

CCC(C)CC(=O)O (centres unmarked) [3-Methylpentanoic Acid]
pest or weed control at 0.3 mg/cm2 (Aedes aegypti mosquitoes [3]): 43 ± 14% | Vol. (vapor pressure), (est) (Vapor pressure): 49.5 mm Hg

CCCCC/C=C\C/C=C\C/C=C\C/C=C\CCCC(=O)O [Arachidonic Acid]
Protection time against Aedes aegypti mosquitoes (Aedes aegypti mosquitoes [1]): <15 min

CCCCCCCCCC(=O)O [Decanoic acid]
Protection time against yellow fever mosquitoes [6]: 300+ min. | Protection time against malaria mosquitoes [7]: 61 to 90 min | pest or weed control at 0.3 mg/cm2 (Aedes aegypti mosquitoes [3]): 93 to 100% | Skin irritation [8]: moderate to severe irritation | Percent Repellency 2 h (Aedes aegypti mosquitoes [4]; on skin): 53 (1) % | Percent Repellency 4 h (Aedes aegypti mosquitoes [4]; on skin): 73 (1) %

CCCCCCCCCCCC(=O)O [Dodecanoic acid]
Vol. (vapor pressure), (est) (Vapor pressure): 0.57 mm Hg

CCCCCCC(=O)O [Ethanthic, ethanthic acid, reference compound]
Protection time against yellow fever mosquitoes [6]: 121 to 180 min | Protection time against malaria mosquitoes [7]: 90+ min.

CCCCC/C=C\C/C=C\CCCCCCCC(=O)O [Linoleic Acid]
Protection time against Aedes aegypti mosquitoes (Aedes aegypti mosquitoes [1]): <15 min

CCCCCCCCC(=O)O [Nonanoic acid]
Protection time against yellow fever mosquitoes [6]: 180+ min. | Protection time against malaria mosquitoes [7]: 31 to 60 min | Erythema ([9]; in vivo): Erythema was observed | pest or weed control at 0.3 mg/cm2 (Aedes aegypti mosquitoes [3]): 93 to 100% | Skin irritation [8]: moderate irritation | repellency two hours after skin application, ranking (Aedes aegypti mosquitoes [4]; FIG. 5): highest repellency | Percent Repellency 2 h (Aedes aegypti mosquitoes [4]; on skin): 66 (1) % | Percent Repellency 4 h (Aedes aegypti mosquitoes [4]; on skin): 47 (1) % | Irritation or sensitization reactions ([10]; in vivo): no irritation or sensitization reactions

CCCCCCCC(=O)O [Octanoic acid]
Erythema ([9]; repeated applications of 0.5 M propanol solutions, occlusive, human males): Erythema was observed | pest or weed control at 0.3 mg/cm2 (Aedes aegypti mosquitoes [3]): 87 ± 1% | Skin irritation [8]: moderate to severe irritation | repellency immediately after application to skin, compared to DEET (Aedes aegypti mosquitoes [4]): comparable to DEET | Percent Repellency 2 h (Aedes aegypti mosquitoes [4]; on skin): 36 (1) % | Percent Repellency 2 h (Aedes aegypti mosquitoes [4]; on skin, listed as octanoic acid): 36% | Irritation or sensitization reactions ([10]; 1% in petrolatum, skin of human subjects): no irritation or sensitization reactions

CCCCCCCC/C=C\CCCCCCCC(=O)O [Oleic Acid]
Protection time against Aedes aegypti mosquitoes (Aedes aegypti mosquitoes [1]): <15 min

CCCCCCCCCCC(=O)O [Undecanoic acid]
Protection time against yellow fever mosquitoes [6]: 300+ min. | Protection time against malaria mosquitoes [7]: 90+ min. | pest or weed control at 0.3 mg/cm2 (Aedes aegypti mosquitoes [3]): 93 to 100% | Vol. (vapor pressure), (est) (Vapor pressure): 1.5 (est) mm Hg

C=CCCCCCCCCC(=O)O [Undecylenic Acid]
Protection time against Aedes aegypti mosquitoes (Aedes aegypti mosquitoes [1]): 210 min

O=C1CCCCN1 [Valerolactam]
pest or weed control at 0.3 mg/cm2 (Aedes aegypti mosquitoes [3]): 20%

O=C(c1ccccc1)c1ccccc1 [benzophenone]
repellent to Aedes aegypti (Aedes aegypti [11]): repellent

CC(C)OC(=O)CCCCC(=O)OC(C)C [diisopropyl adipate]
repellent to Aedes aegypti (Aedes aegypti [11]): repellent
